# From patent US9340554B2, “IRAK inhibitors and uses thereof” (Nimbus Iris, Inc., priority 2011, dated 2016)
# Molecular target: T1, IRAK4 (Homo sapiens, UniProt Q9NWZ3)
# T1 construct: purchased CARNA Bioscience 09-145
# T1 sequence (Q9NWZ3 1-460): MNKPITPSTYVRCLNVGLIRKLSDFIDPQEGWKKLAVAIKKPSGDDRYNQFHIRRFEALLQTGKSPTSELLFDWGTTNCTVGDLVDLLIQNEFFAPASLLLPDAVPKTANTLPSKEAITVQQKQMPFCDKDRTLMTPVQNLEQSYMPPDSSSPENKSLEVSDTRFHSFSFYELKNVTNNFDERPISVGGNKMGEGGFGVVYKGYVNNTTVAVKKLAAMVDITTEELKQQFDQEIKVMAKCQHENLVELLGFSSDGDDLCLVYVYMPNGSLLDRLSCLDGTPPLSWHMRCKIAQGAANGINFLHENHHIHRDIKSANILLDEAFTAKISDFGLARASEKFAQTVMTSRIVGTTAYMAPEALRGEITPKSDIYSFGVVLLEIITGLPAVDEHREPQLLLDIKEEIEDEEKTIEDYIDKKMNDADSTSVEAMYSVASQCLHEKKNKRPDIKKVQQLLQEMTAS
# Assay: IRAK-4 activity inhibition assay (Caliper, Peptide 8, 37 μM ATP)
# Assay type: biochemical
# Settings: 3.5 nM IRAK4, 1.5 μM Peptide 8, 37 μM ATP, 28° C. 40 minutes; read-out: IRAK-4 activity inhibition IC50
# Description: A 1× kinase base buffer was prepared from 50 mM HEPES, pH 7.5 and 0.0015% Brij-35. A stop buffer was prepared from 100 mM HEPES, pH 7.5, 0.015% Brij-35, 0.2% Coating Reagent #3, and 50 mM EDTA.
# Test compound was diluted to 50× of the final desired highest inhibitor concentration in reaction by 100% DMSO. 100 ul of this compound dilution was transferred to a well in a 96-well plate.
# Test compound was serially diluted by transferring 30 μl to 60 μl of 100% DMSO in the next well and so forth for a total of 10 concentrations. 100 μl of 100% DMSO was added to two empty wells for no compound control and no enzyme control in the same 96-well plate.
# A new 96-well plate was marked as intermediate plate. 5 μl of compound serial dilution was transferred from source plate to the corresponding wells of the intermediate plate. 45 μl of 1× kinase base buffer (KB buffer) was added to each well of the intermediate plate. The intermediate plate was placed for 10 min on a shaker.
# 5 μl of each well was transferred from the 96-well intermediate plate to a 384-well plate in duplicates. […] A2 of the 96-well plate is transferred to A3 and A4 of the 384-well plate, and so on.
# IRAK4 and DTT in 1× kinase base buffer was added.
# Assay plate already contained 5 μl of compound in 10% DMSO. Added 10 μl of 2.5× enzyme solution to each well of the 384-well assay plate, except no enzyme control wells. […] Added 10 μl of 1× kinase base buffer to no enzyme control wells in the assay plate. Incubated at room temperature for 10 min.
# Added 10 μl of 2.5× peptide solution to each well of the 384-well assay plate. […] Incubated at 28° C. for 40 minutes. Added 25 μl of stop buffer to stop reaction. Collected data on Caliper.
# Copied conversion % data from Caliper program. Converted conversion % values to percent inhibition values. Percent inhibition=(max−conversion %)/(max−min)*100, where “max” means the conversion % of DMSO control and “min” means the conversion % of no enzyme control.
# The compound numbers correspond to the compound numbers in Table 1. […] “NA” stands for “not assayed.”
row,SMILES,IC50
1,NC(=O)C1CCN(c2ncnc3sc4c(c23)CCCC4)CC1 [Compound I-2],20 to 50 µM
2,O=C(O)[C@@H]1CC[C@H](Nc2ncnc3sc4c(c23)CCC4)C1 [Compound I-6],20 to 50 µM
3,c1nc(NC2CCOCC2)c2c3c(sc2n1)CCC3 [Compound I-8],20 to 50 µM
4,NC1CCN(c2ncnc3sc4c(c23)CCC4)CC1 [Compound I-9],20 to 50 µM
5,Cc1sc2ncnc(N3CCC(C(N)=O)CC3)c2c1C [Compound I-18],20 to 50 µM
6,"Cc1sc2ncnc(N[C@H]3CC[C@H](O)CC3)c2c1C [Compound I-19, trans-4-((5,6-dimethylthieno[2,3-d]pyrimidin-4-yl)amino)cyclohexanol]",5 to 20 µM
7,CCC1CCc2c(sc3ncnc(NC4CCN(Cc5ccccc5)CC4)c23)C1 (centres unmarked) [Compound I-20],20 to 50 µM
8,CC1CCc2c(sc3ncnc(N4CCN(S(=O)(=O)c5ccc(C(C)(C)C)cc5)CC4)c23)C1 (centres unmarked) [Compound I-23],20 to 50 µM
9,CCC(C)c1ccc(S(=O)(=O)N2CCN(c3ncnc4sc5c(c34)CCC(C)C5)CC2)cc1 (centres unmarked) [Compound I-24],> 50 µM
10,Cc1sc2ncnc(N3CCC(C(=O)NCc4ccc(S(N)(=O)=O)cc4)CC3)c2c1C [Compound I-25],5 to 20 µM
11,COc1ccc(OCCN2CCN(c3ncnc4sc5c(c34)CCCC5)CC2)cc1 [Compound I-27],5 to 20 µM
12,CC1CCc2c(sc3ncnc(N4CCC5(CC4)NC(=O)NC5=O)c23)C1 (centres unmarked) [Compound I-28],5 to 20 µM
13,Cc1sc2ncnc(N3CCC(C(=O)NCCc4nnc5ccccn45)CC3)c2c1C [Compound I-29],5 to 20 µM
14,CCOc1ccccc1N1CCN(c2ncnc3sc4c(c23)CCC4)CC1 [Compound I-30],> 50 µM
15,Cc1sc2ncnc(N3CCC(C(=O)Nc4ccc(C#N)c(Cl)c4)CC3)c2c1C [Compound I-31],5 to 20 µM
16,Cc1sc2ncnc(N3CCC(C(=O)Nc4cc(Cl)ccc4Cl)CC3)c2c1C [Compound I-32],5 to 20 µM
17,O=C(NCC(F)(F)F)C1CCN(c2ncnc3sc4c(c23)CCC4)CC1 [Compound I-33],20 to 50 µM
18,CC1CCc2sc3ncnc(N4CCC(C(N)=O)CC4)c3c2C1 (centres unmarked) [Compound I-36],5 to 20 µM
19,"CC1(C)CCc2sc3ncnc(N[C@H]4CC[C@H](O)CC4)c3c2C1 [Compound I-43, trans-4-((6,6-dimethyl-5,6,7,8-tetrahydrobenzo[4,5]thieno[2,3-d]pyrimidin-4-yl)amino)cyclohexanol]",5 to 20 µM
20,C[C@@H]1CCc2sc3ncnc(N4CCC(C(N)=O)CC4)c3c2C1 [Compound I-45],5 to 20 µM
21,CC1(C)CCc2sc3ncnc(N4CCC(C(N)=O)CC4)c3c2C1 [Compound I-46],20 to 50 µM
22,"C[C@@H]1CCc2sc3ncnc(N[C@H]4CC[C@H](O)CC4)c3c2C1 [Compound I-47, trans-4-(((R)-6-methyl-5,6,7,8-tetrahydrobenzo[4,5]thieno[2,3-d]pyrimidin-4-yl)amino)cyclohexanol]",5 to 20 µM

# Second part, the molecule after the results:
row,IC50,SMILES
1,5 to 20 µM,"OC1CCCC(Nc2ncnc3sc4c(c23)CCC4)C1 (mixture of isomers) [Compound I-15, 3-((6,7-dihydro-5H-cyclopenta[4,5]thieno[2,3-d]pyrimidin-4-yl)amino)cyclohexanol]"
2,5 to 20 µM,"CC1CCc2sc3ncnc(NC4CCCC(O)C4)c3c2C1 (mixture of isomers) [Compound I-35, 3-((6-methyl-5,6,7,8-tetrahydrobenzo[4,5]thieno[2,3-d]pyrimidin-4-yl)amino)cyclohexanol]"
3,5 to 20 µM,"O[C@@H]1CCC[C@H](Nc2ncnc3sc4c(c23)CCC4)C1 (relative stereo) [Compound I-21, cis-3-((6,7-dihydro-5H-cyclopenta[4,5]thieno[2,3-d]pyrimidin-4-yl)amino)cyclohexanol]"
4,5 to 20 µM,"O[C@H]1CCC[C@H](Nc2ncnc3sc4c(c23)CCC4)C1 (relative stereo) [Compound I-22, trans-3-((6,7-dihydro-5H-cyclopenta[4,5]thieno[2,3-d]pyrimidin-4-yl)amino)cyclohexanol]"
5,5 to 20 µM,"CC1CCc2sc3ncnc(N[C@H]4CC[C@H](O)CC4)c3c2C1 (relative stereo) [Compound I-37, trans-4-((6-methyl-5,6,7,8-tetrahydrobenzo[4,5]thieno[2,3-d]pyrimidin-4-yl)amino)cyclohexanol]"
6,5 to 20 µM,NC(=O)C1CCN(c2ncnc3sc4c(c23)CCCC4)CC1 [Compound I-1]
7,5 to 20 µM,CC1CCc2c(sc3ncnc(N4CCC(C(N)=O)CC4)c23)C1 (centres unmarked) [Compound I-3]
8,5 to 20 µM,"O[C@H]1CC[C@H](Nc2ncnc3sc4c(c23)CCCC4)CC1 [Compound I-4, trans-4-((5,6,7,8-tetrahydrobenzo[4,5]thieno[2,3-d]pyrimidin-4-yl)amino)cyclohexanol]"
9,< 5 µM,"OC1CCCC(Nc2ncnc3sc4c(c23)CCCC4)C1 (centres unmarked) [Compound I-5, 3-((5,6,7,8-tetrahydrobenzo[4,5]thieno[2,3-d]pyrimidin-4-yl)amino)cyclohexanol]"
10,5 to 20 µM,"O[C@H]1CC[C@H](Nc2ncnc3sc4c(c23)CCC4)CC1 [Compound I-7, trans-4-((6,7-dihydro-5H-cyclopenta[4,5]thieno[2,3-d]pyrimidin-4-yl)amino)cyclohexanol]"
11,< 5 µM,"N[C@H]1CC[C@H](Nc2ncnc3sc4c(c23)CCC4)CC1 [Compound I-10, trans-N^1-(6,7-dihydro-5H-cyclopenta[4,5]thieno[2,3-d]pyrimidin-4-yl)cyclohexane-1,4-diamine]"
12,5 to 20 µM,"CC(=O)N[C@H]1CC[C@H](Nc2ncnc3sc4c(c23)CCC4)CC1 [Compound I-11, N-(trans-4-((6,7-dihydro-5H-cyclopenta[4,5]thieno[2,3-d]pyrimidin-4-yl)amino)cyclohexyl)acetamide]"
13,5 to 20 µM,CCC1CCc2c(sc3ncnc(N4CCC(C(=O)NC)CC4)c23)C1 (centres unmarked) [Compound I-13]
14,< 5 µM,CCC1CCc2c(sc3ncnc(N4CCC(C(=O)NO)CC4)c23)C1 (centres unmarked) [Compound I-14]
15,5 to 20 µM,CCC1CCc2c(sc3ncnc(N4CCN(C)CC4)c23)C1 (centres unmarked) [Compound I-16]
16,5 to 20 µM,CCC1CCc2c(sc3ncnc(N4CCC(C(N)=O)CC4)c23)C1 (centres unmarked) [Compound I-17]
17,< 5 µM,"CN[C@H]1CC[C@H](Nc2ncnc3sc4c(c23)CCC4)CC1 [Compound I-34, trans-N^1-(6,7-dihydro-5H-cyclopenta[4,5]thieno[2,3-d]pyrimidin-4-yl)-N^4-methylcyclohexane-1,4-diamine]"
18,< 5 µM,"CC1(C)CCc2sc3ncnc(N[C@H]4CC[C@H](N)CC4)c3c2C1 [Compound I-38, trans-N^1-(6,6-dimethyl-5,6,7,8-tetrahydrobenzo[4,5]thieno[2,3-d]pyrimidin-4-yl)cyclohexane-1,4-diamine]"
19,< 5 µM,"CCC1CCc2c(sc3ncnc(N[C@H]4CC[C@H](N)CC4)c23)C1 (stereo partly drawn) [Compound I-39, trans-N^1-(7-ethyl-5,6,7,8-tetrahydrobenzo[4,5]thieno[2,3-d]pyrimidin-4-yl)cyclohexane-1,4-diamine]"
20,< 5 µM,"CN(C)[C@H]1CC[C@H](Nc2ncnc3sc4c(c23)CC(C)(C)CC4)CC1 [Compound I-40, trans-N^1-(6,6-dimethyl-5,6,7,8-tetrahydrobenzo[4,5]thieno[2,3-d]pyrimidin-4-yl)-N^4,N^4-dimethylcyclohexane-1,4-diamine]"
21,< 5 µM,"CN[C@H]1CC[C@H](Nc2ncnc3sc4c(c23)CC(C)(C)CC4)CC1 [Compound I-41, trans-N^1-(6,6-dimethyl-5,6,7,8-tetrahydrobenzo[4,5]thieno[2,3-d]pyrimidin-4-yl)-N^4-methylcyclohexane-1,4-diamine]"
22,< 5 µM,"CN[C@H]1CC[C@H](Nc2ncnc3sc(C)c(C)c23)CC1 [Compound I-44, trans-N^1-(5,6-dimethylthieno[2,3-d]pyrimidin-4-yl)-N^4-methylcyclohexane-1,4-diamine]"
